Values after ≈ are worked out from the molar mass of the structure shown.

A short description of the data set: Solubility measurement in toluene. It is filed as physicochemical. As to conditions: 60° C. The protocol: Example 1: Solubility Measurement
In Table 2, solubility (g/L) in toluene at 60° C. is listed.

`CCCCCCCCCCc1ccc2cc3c(cc2c1)sc1c2cc4ccc(CCCCCCCCCC)cc4cc2sc31` [Compound No. 12, 6,6′-Didecyldinaphtho[2,3-b:2′,3′-f]thieno[3,2-b]thiophen] came in with a solubility in toluene of 50 µg/mL (≈ 80.5 µM).

The compound `c1ccc2cc3c(cc2c1)sc1c2cc4ccccc4cc2sc31` [ref. 1, dinaphtho[2,3-b:2′,3′-f]thieno[3,2-b]thiophene, reference compound] came in with a solubility in toluene of no more than 10 µg/mL.

On to `CCCCCCCCc1ccc2cc3c(cc2c1)sc1c2cc4ccc(CCCCCCCC)cc4cc2sc31` [Compound No. 10, 6,6′-dioctyldinaphtho[2,3-b:2′,3′-f]thieno[3,2-b]thiophen], for which the solubility in toluene is 60 µg/mL (≈ 106 µM).

Compound `CCCCCCCCCCCCc1ccc2cc3c(cc2c1)sc1c2cc4ccc(CCCCCCCCCCCC)cc4cc2sc31` [Compound No. 14, 6,6′-Didodecyldinaphtho[2,3-b:2′,3′-f]thieno[3,2-b]thiophen] yielded a solubility in toluene of 40 µg/mL (≈ 59.1 µM).

The compound `CCCCc1ccc2cc3c(cc2c1)sc1c2cc4ccc(CCCC)cc4cc2sc31` [ref. 2, 6,6′-Dibutyldinaphtho[2,3-b:2′,3′-f]thieno[3,2-b]thiophen, reference compound] came in with a solubility in toluene of 20 µg/mL (≈ 44.2 µM).

The compound `CCCCCCc1ccc2cc3c(cc2c1)sc1c2cc4ccc(CCCCCC)cc4cc2sc31` [compound 6, 6,6′-Dihexyldinaphtho[2,3-b:2′,3′-f]thieno[3,2-b]thiophen] showed a solubility in toluene of 80 µg/mL (≈ 157 µM).

The record behind these values is US9796727B2, “Field effect transistor” (Nippon Kayaku Kabushiki Kaisha, priority 2009, dated 2017).
